Source: US20220347171A1, “TREATMENT OF PRURIGO NODULARIS” (TREVI THERAPEUTICS, INC., priority 2016, published 2022)
Counter-ions that a name gives are not always drawn.

Assays:
[1] = test system: prurigo nodularis patients; assay: Example 2 trial: average itch intensity NRS score; assay type: in vivo, human; conditions: 180 mg BID; end of treatment; 95% CI −2.764, −0.134; P=0.031
Description: This clinical study was a double-blind, placebo-controlled trial in which prurigo nodularis patients were randomized in a 1:1:1 ratio to nalbuphine ER tablets to a target dose of 90 mg twice daily (BID), nalbuphine HCl ER tablets 180 mg BID, or placebo tablets BID. Use of nonsedating rescue antihistamine medications (non-first generation H1-antihistamines [Simons F E. Advances in H1-antihistamines. N Engl J Med. 2004; 351(21):2203-17.]) were allowed in the study but their use was recorded. Cleansing emollients were allowed for hygiene purposes provided there were no active substances (such as menthol or urea) contained in the lotion. A placebo comparator was chosen because there are no approved treatments for prurigo nodularis in the United States or Europe or an established standard of care that could serve as an active control.
(1) The proportion of patients with at least a 30% reduction in the 7-day average daily diary-reported NRS itch intensity from baseline to the evaluation visit (Week 10). (2) The proportion of patients with at least a 50% reduction in the 7-day average daily diary-reported NRS itch intensity from baseline to the evaluation visit (Week 10). […] (5) Prurigo nodularis skin lesions, as quantitatively measured by the Prurigo Activity Score (PAS) recorded at baseline and during evaluation visit (Week 10). […]

[2] = test system: prurigo nodularis patients; assay: Phase 2 open label extension study (TR03ext, Example 3), titrated 30 mg QD to 180 mg BID, up to 50 weeks: Worst itch NRS; assay type: in vivo, human; conditions: for Worst Itch NRS Visit Mean (SD): Baseline 7.6 (1.6)
From the text: This clinical study was a Phase 2 Open Label Extension Study (clinical study TR03ext) of the randomized, double-blind, 3-parallel arm, placebo controlled dose ranging study described in Example 2. All those subjects who were randomized, and then completed Example 2 study, were eligible to participate in the Extension Study.
The primary endpoint was a description of the overall incidence and nature of Treatment-Emergent AEs (TEAES) during weeks 5-50 of the study. Exploratory efficacy endpoints included Change from Baseline patient reported outcome measures of Worst itch NRS, itchy VRS and ItchyQoL, by Treatment Period study visit and Baseline NRS score. There was also an assessment of any potential skin lesion changes over time using the metrics of the PAS.
Of the 63 patients that were randomized to the study of Example 2, 36 subjects who enrolled into Extension Study entered the Treatment Period of the study and were exposed to nalbuphine HCl ER tablet administration and are the basis of the study safety population analysis.
Patients in Extension Study were titrated over a dose range of 30 mg QD to 180 mg BID based on tolerability. The selected dose range was based on Example 2 study whereby patients were titrated from a 30 mg QD dose either to 30 mg BID, 60 mg BID, 90 mg BID, 120 mg BID or a 180 mg BID dose. The highest dose proposed was 180 mg BID (360 mg daily dose), and was well below the highest recommended daily treatment of 160 mg IV (equivalent to 960 mg oral) for the current marketed parenteral administered product.
The study duration for each patient was up to 52 weeks, with up to 50 weeks on study drug. The Extension Study consisted of a Treatment Period (that was followed by a Washout Safety Follow-up Period) and an Observation Period. Patients either entered directly into a drug Treatment Period (NRS >5) or a no-drug Observation Period (NRS ≤5) based on their reported NRS scores on the first Visit (Visit 1a). For up to 12 Extended Screening weeks, patients in the no-drug Observation Period could have also transitioned into the drug Treatment Period if their NRS increased to NRS >5. All patients entering the Treatment Period, whether immediately upon study entry or following a period of time in the Observation Period, were titrated to a dose ranging between 30 mg up to 180 mg BID, the highest dose tested in Example 2.

For `Oc1ccc2c3c1OC1[C@@H](O)CC[C@@]4(O)[C@@H](C2)N(CC2CCC2)CC[C@]314` (stereo partly drawn) [Nalbuphine, 17-(cyclobutylmethyl)-4,5α-epoxymorphinian-3, 6α, 14-triol, hydrochloride], the “LS mean treatment difference in change from baseline average itch intensity NRS score versus placebo” value [1] was −1.45, the “Worst Itch NRS Mean (SD) Change from Baseline” value (from here on “Worst Itch NRS Mean (SD) Change”) ([2]; Study Week 3, N=34) was −2.0 (2.2) and the “Worst Itch NRS Visit Mean (SD)” value ([2]; Study Week 3, N=34) was 5.7 (2.4). The “Worst Itch NRS Mean (SD) Change” value ([2]; Study Week 5, N=33) was −2.5 (2.2), the “Worst Itch NRS Visit Mean (SD)” value ([2]; Study Week 5, N=33) was 5.2 (2.5) and the “Worst Itch NRS Mean (SD) Change” value ([2]; Study Week 9, N=30) was −2.9 (2.2). The “Worst Itch NRS Visit Mean (SD)” value ([2]; Study Week 9, N=30) was 4.6 (2.3), the “Worst Itch NRS Mean (SD) Change” value ([2]; Study Week 13, N=25) was −2.7 (1.8) and the “Worst Itch NRS Visit Mean (SD)” value ([2]; Study Week 13, N=25) was 4.8 (2.2). For the same compound, the “Worst Itch NRS Mean (SD) Change” value ([2]; Study Week 17, N=25) was −3.6 (2.6), the “Worst Itch NRS Visit Mean (SD)” value ([2]; Study Week 17, N=25) was 3.8 (2.4) and the “Worst Itch NRS Mean (SD) Change” value ([2]; Study Week 21, N=22) was −3.3 (2.4). The “Worst Itch NRS Visit Mean (SD)” value ([2]; Study Week 21, N=22) was 4.1 (2.4), the “Worst Itch NRS Mean (SD) Change” value ([2]; Study Week 26, N=21) was −3.9 (2.2) and the “Worst Itch NRS Visit Mean (SD)” value ([2]; Study Week 26, N=21) was 3.4 (1.6). The “Worst Itch NRS Mean (SD) Change” value ([2]; Study Week 30, N=20) was −4.2 (2.3), the “Worst Itch NRS Visit Mean (SD)” value ([2]; Study Week 30, N=20) was 3.2 (1.6) and the “Worst Itch NRS Mean (SD) Change” value ([2]; Study Week 34, N=18) was −3.9 (2.1). The “Worst Itch NRS Visit Mean (SD)” value ([2]; Study Week 34, N=18) was 3.3 (1.6), the “Worst Itch NRS Mean (SD) Change” value ([2]; Study Week 38, N=17) was −3.9 (1.7) and the “Worst Itch NRS Visit Mean (SD)” value ([2]; Study Week 38, N=17) was 3.2 (1.6). The “Worst Itch NRS Mean (SD) Change” value ([2]; Study Week 42, N=17) was −3.9 (1.4), the “Worst Itch NRS Visit Mean (SD)” value ([2]; Study Week 42, N=17) was 3.2 (1.4) and the “Worst Itch NRS Mean (SD) Change” value ([2]; Study Week 46, N=17) was −3.9 (1.3). The “Worst Itch NRS Visit Mean (SD)” value ([2]; Study Week 46, N=17) was 3.2 (1.5), the “Worst Itch NRS Mean (SD) Change” value ([2]; Study Week 50, N=15) was −4.3 (1.3) and the “Worst Itch NRS Visit Mean (SD)” value ([2]; Study Week 50, N=15) was 2.9 (1.7).
